From patent US7211434B2, “Primitive neural stem cells and method for differentiation of stem cells to neural cells” (priority 2000, dated 2007)

Tests used:
Assay type in all cases: cell-based, mouse
[1] = tested on: ES-derived neural sphere colony cells; assay: Subcloning of single ES-derived sphere colonies (secondary colony formation, self-renewal); settings: subcloned single primary colonies; factor alone
Protocol: Self-renewal of primary colony-formin) ES cells was assessed as previously described (Tropepe et al., 1999). Single sphere colonies were isolated, mechanically dissociated into a single cell suspension in 0.2 ml of serum-free media containing various combinations of LIF (1000 U/ml), […] (10 ng/ml), heparin (2 (g/ml), EGF (20 ng/ml; Upstate Biotech) or B27 supplement (1X) and cultured in 96-well (Nunclon) plates. Secondary sphere colonies were quantified after 7–10 days. A similar procedure was used for repeated passaging experiments. Cell viability after a 7-day culture period (sphere colony assay) or after 4–24 hours (short-term ES differentiation assay) was determined using trypan blue exclusion (1:2 dilution of 0.4% trypan blue; Gibco).

[2] = tested on: ES cells; assay: Primary neural sphere colony formation from ES cells in serum-free low-density culture, 7 days; settings: for primary colony formation, factor alone: ES cells at relatively low cell densities, serum-free, 7 days in vitro
Protocol: For passaging ES cells, cultures were disaggregated with 0.05% trypsin dissolved in Tris-saline/EDTA for 5–10 minutes, mechanically dissociated, centrifuged and resuspended in culture medium.
Passaged ES cells were washed (2 times), centrifuged and resuspended in chemically defined serum-free media (Reynolds et al., 1992; Reynolds & Weiss, 1996) composed of a 1:1 mixture of Dulbecco's modified Eagle's medium (DMEM GIBCO) and F-12 nutrient (GIBCO) including 0.6% glucose (Sigma), 2 mM glutamine (GIBCO), 3 mM sodium bicarbonate (Sigma), and 5 mM HEPFS buffer (Sigma). A defined hormone and salt mixture (Sigma) that included insulin (25 (g/ml), transferrin (100 (g/ml), progestrone (20 nM), putrescine (60 (M), and selenium chloride (30 nM) was used instead of serum. ES cells were plated at various cell densities in 24-well culture plates (Nunclon) in the presence of either LIF (1000 U/ml), LIF+FGF2 (10 ng/ml; Upstate Biotech or Sigma) and 2 (g/ml heparin (Sigma), or in the absence of any exogenous growth factors. For short term (4–24 hours) neural differentiation, ES cells were plated in identical culture conditions in 24-well culture plates (Nunclon) that were precoated with poly-L-ornithine (15 μg/ml, Gibco).
Limiting dilution analysis was performed as previously described (Bellows and Aubin, 1989; Tropepe et al., 1999). ES cells were plated in 24-well plates containing LIF (1000 U/ml). Cell numbers were adjusted to give a starting concentration of 5000 cells/ml from which serial dilutions were made. Final cell dilutions ranged from 1000 cells per well to 1 cell per well in 0.5 ml aliquots. Cultures were left undisturbed for 7 days after which time the fraction of wells not containing sphere colonies for each cell plating density was calculated and those points were plotted against the number of cells plated per well. The number of cells required to form one sphere colony, which reflected the proportion of neural stem cells in the entire population, was then determined from the point at which the regression line crossed the 0.37 level (37%). […]

[3] = tested on: neural stem cells from the E9.5 forebrain; assay: Sphere colony formation from E9.5 forebrain neural stem cells
Protocol: Pregnant CD1 mice (Charles River, Quebec) of gestational age (9.5 (E9.5) or E11.5 (see below) were killed via cervical dislocation and embryos were removed as previously described (Chiasson et al., 1999; Tropepe et al., 1999). Dissected germinal zone from the E9.5 telencephalon was transferred to serum-free media and mechanically dissociated into a cell suspension with a fire-polished Pasteur pipette. Cell viability was assessed using trypan blue. Cells were plated at 10 cells/μl in 24-well (0.5 ml/well) uncoated plates (Nunclon) in serum-free media containing either FGF2 (10 ng/ml)+heparin (2 (g/ml) or FGF2+heparin+LIF (1000 U/ml). Self-renewal of neural stem cells that generated primary sphere colonies (selecting mainly floating colonies after 7 days in vitro) were routinely subcloned by mechanically dissociating a single colony in 0.2 ml of serum-free media, in identical growth factor conditions as the primary culture, and plated in uncoated 96-well (0.2 ml/well) plates (Nunclon). The number of new secondary colonies was quantified after a further 6–7 days in vitro. Neural stem cell colonies from the adult forebrain subependyma were isolated as previously described (Chiasson et al., 1999) and cultured as above.

| Substance | secondary neural stem cell colony formation [1] | primary colony formation, factor alone [2] | E9.5 neural stem cell proliferation, LIF alone ([3]; LIF alone) | numbers of neural stem cells forming sphere colonies, with FGF2 ([3]; LIF in the presence of FGF2, compared to FGF2 alone) | estimated frequency of sphere colony forming cells ([2]; limiting dilution assay in the presence of LIF (1000 U/ml)) [%] |
| --- | --- | --- | --- | --- | --- |
| EGF: growth factor, 20 ng/ml; Upstate Biotech (NSDSECPLSHDGYCLHDGVCMYIEALDKYACNCVVGYIGERCQYRDLKWWELR; Epidermal growth factor; UniProt P01133 971-1023, looked up) | not observed | no cell colonies were generated |  |  |  |
| LIF: leukemia inhibitory factor, cytokine added at 1000 U/ml | not sufficient for secondary colony formation | floating sphere-like colonies were generated | not sufficient for E9.5 neural stem cell proliferation | can enhance the numbers of FGF-responsive neural stem cells | ~0.2 |
